Values quoted from earlier work in patent US20120251478A1, “Method for treatment of a glomerular disease comprising administration of anion exchange resin” (priority 2006, published 2012).

System: apparent albuminuria
Conditions: reports, nonpatent reference 2

Compound: COc1ccc(Cl)cc1C(=O)NCCc1ccc(S(=O)(=O)NC(=O)NC2CCCCC2)cc1 [glibenclamide]
- apparent albuminuria: not ameliorated
